Among the data in patent US10189843B2, “Fused pyrazole derivative having autotaxin inhibitory activity” (The University of Tokyo, priority 2014, dated 2019) are IC50 values, retold here.

What is called IC50 is the concentration that gives 50% inhibition.

In the assay the target is T1, Human autotaxin enzyme (Homo sapiens, UniProt Q13822).
T1 construct: purchased R&D System
In words: Evaluation of autotaxin inhibitor, Method C (18:0 Lyso PC substrate, choline assay, Resorufin fluorescence). The note with it: Method C (Test Example 3), read-out: Inhibitory activity (enzyme inhibitory activity, IC50). It is filed as biochemical. The method, then: Test Example 3 (Method C) Evaluation of Autotaxin Inhibitor
Solution B containing 100 mM Tris-HCl buffer (pH7.5), 150 mM NaCl, 5 mM MgCl2, and 0.05% Triton X-100 was prepared. Human autotaxin enzyme (purchased from R&D System) was diluted with Solution B, and 2.5 μl of which was added to a solution of test compound in DMSO. Furthermore, 2.5 μl of 200 μM 18:0 Lyso PC (purchased from Avanti Polar Lipids) in Solution B was added and allowed to react at room temperature for 2 hours. After completion of the reaction, 15 μl of the coline assay reagent (100 mM Tris-HCl buffer (pH7.5), 5 mM MgCl2, 77 μg/ml coline oxidase, 10 μg/ml peroxydase, 25 μM 10-acetyl-3,7-dihydroxyphenoxazine, and excess autotaxin inhibitor) was added and allowed to react at room temperature for 20 minutes. The fluorescent dye Resorufin, which was produced by the reaction, was detected. The fluorescence was detected using ViewLux (PerkinElmer, Inc.) with a excitation wavelength of 531 nm and a fluorescence wavelength of 598 nm.
The percent inhibition of the test compound was calculated by assuming the sample with no test compound as 0% inhibition and the sample with no enzyme as 100% inhibition, and the percent inhibitions at different concentrations of the test compound were plotted to obtain a concentration-dependent curve.
As to `CCCCCC1CN(CC(=O)N2CCC(C(N)=O)C2)C(=O)c2cc(-c3ccc(Cl)cc3)nn21` (stereo not shown) [Compound I-0112], the IC50 lay in the range of 100 to 1000 nM. For `C[C@H]1CN(CC(=O)NCCC(=O)O)C(=O)c2cc(-c3ccc(Cl)cc3)nn21` [Compound I-0156], the IC50 is at least 1000 nM. As for `CCCCC1CN(CC(=O)N2CCCC[C@@H]2C)C(=O)c2cc(-c3ccc(Cl)cc3)nn21` (stereo partly shown) [Compound I-0247], the IC50 lay within 10 to 100 nM. To `CCCCCC1CN(CC(=O)N2CCCCC2CCN2CCOCC2)C(=O)c2cc(-c3ccc(Cl)cc3)nn21` (stereo not shown) [Compound I-0109] belongs at least 1000 nM; to `CCOC(=O)CN1CC(C(C)C)n2nc(-c3ccc(Cl)cc3)cc2C1=O` (stereo not shown) [Compound I-0022], at least 1000 nM. For `CC(=O)Nc1cc(Cl)c(F)cc1-c1cc2n(n1)[C@@H](C)CN(Cc1ccc(C#N)cc1)C2=O` [Compound I-0330], the IC50 was under 10 nM. `CCCCC1CN(Cc2ccc(C#N)cc2)C(=O)c2cc(-c3ccc(Cl)cc3COC)nn21` (stereo not shown) [Compound I-0284]: the IC50 was at least 1000 nM. To `CCCCCC1CN(CC(=O)N(C)CC)C(=O)c2cc(-c3ccc(Cl)cc3)nn21` (stereo not shown) [Compound I-0077] belongs 100 to 1000 nM; to `COCC(=O)Nc1cc(C#N)ccc1-c1cc2n(n1)[C@@H](C)CN(CC(=O)N(C)CCC#N)C2=O` [Compound I-0351], under 10 nM. Consider `CCCCC1CN(Cc2ncco2)C(=O)c2cc(-c3ccc(Cl)cc3)nn21` (stereo not shown) [Compound I-0260], for which the IC50 was 100 to 1000 nM. For `COCc1cc(Cl)ccc1-c1cc2n(n1)[C@@H](C)CN(Cc1ccc(C#N)cc1)C2=O` [Compound I-0329], the IC50 is at least 1000 nM.

Turning to `CCCCC1CN(CC2CN(CC#N)C(=O)O2)C(=O)c2cc(-c3ccc(Cl)cc3)nn21` (stereo not shown) [Compound I-0299], the IC50 is 10 to 100 nM. For the molecule `CCCCCC1CN(CC(=O)N2CCCC2CCCc2ccccc2)C(=O)c2cc(-c3ccc(Cl)cc3)nn21` (stereo not shown) [Compound I-0078], the IC50 is at least 1000 nM. For `N#Cc1ccc(CN2CC(COC(F)(F)C(F)F)n3nc(-c4ccc(Cl)cc4)cc3C2=O)cc1` (stereo not shown) [Compound I-0195], the IC50 was 100 to 1000 nM.

Turning to `CCCCC1CN(Cc2ccc(C#N)cc2)C(=O)c2cc(-c3ccc(Cl)cc3N)nn21` (stereo not shown) [Compound I-0281], the IC50 lay within 100 to 1000 nM. On to `CCCCCC1CN(c2ccc(C(=O)N(C)C)cc2)C(=O)c2cc(-c3ccc(Cl)cc3)nn21` (stereo not shown) [Compound I-0310], for which the IC50 is at least 1000 nM.

On to `C[C@H]1CN(CC(=O)N(C)CCC#N)C(=O)c2cc(-c3ccc(C#N)cc3NC(=O)CO)nn21` [Compound I-0360], for which the IC50 was in the range of 100 to 1000 nM. To `CCCCCC1CN(CC(=O)Nc2cccnc2)C(=O)c2cc(-c3ccc(Cl)cc3)nn21` (stereo not shown) [Compound I-0086] belongs 100 to 1000 nM. The figure for `CCCCCC1CN(CC(=O)N2CCNCC2)C(=O)c2cc(-c3ccc(Cl)cc3)nn21` (stereo not shown) [Compound I-0100] is 100 to 1000 nM; for `CCCCCC1CN(CC(=O)N2CCCC(C(N)=O)C2)C(=O)c2cc(-c3ccc(Cl)cc3)nn21` (stereo not shown) [Compound I-0095] it is 10 to 100 nM; for `CCCCCC1CN(Cc2ccc(S(C)(=O)=O)cc2)C(=O)c2cc(-c3ccc(Cl)cc3)nn21` (stereo not shown) [Compound I-0141] it is 100 to 1000 nM. Regarding `CCCCC1CN(CC(=O)N2CCC[C@H]2C)C(=O)c2cc(-c3ccc(Cl)cc3)nn21` (stereo partly shown) [Compound I-0227], the concentration for half-maximal inhibition (IC50) is 100 to 1000 nM.

In the case of `CC(=O)Nc1cc(C#N)ccc1-c1cc2n(n1)C(CC(F)(F)F)CN(Cc1ccc(C#N)cc1)C2=O` (stereo not shown) [Compound I-0370], the IC50 fell in the range of 10 to 100 nM. To `C[C@H]1CN(CC(=O)N(C)CC#N)C(=O)c2cc(-c3ccc(C#N)cc3NC(=O)C3CC3)nn21` [Compound I-0364] belongs 10 to 100 nM; to `CCCCC1CN(CC(=O)N2CCC[C@H](C)C2)C(=O)c2cc(-c3ccc(Cl)cc3)nn21` (stereo partly shown) [Compound I-0242], 100 to 1000 nM.

With `CCCCCC1CN(CC(=O)NC(Cc2ccccc2)C(=O)O)C(=O)c2cc(-c3ccc(Cl)cc3)nn21` (stereo not shown) [Compound I-0055], the IC50 is under 10 nM. As to `CCCCCC1CN(Cc2ccccc2OCCCN(C)C)C(=O)c2cc(-c3ccc(Cl)cc3)nn21` (stereo not shown) [Compound I-0138], the IC50 fell in the range of 100 to 1000 nM. Take `CCCCCC1CN(c2cccc(CC(=O)O)c2)C(=O)c2cc(-c3ccc(Cl)cc3)nn21` (stereo not shown) [Compound I-0202]: the IC50 is at least 1000 nM.

`CCCCCC1CN(CC(=O)N(C)c2ccncc2)C(=O)c2cc(-c3ccc(Cl)cc3)nn21` (stereo not shown) [Compound I-0085]: the IC50 is at least 1000 nM. The figure for `CCOC(=O)CN1C(=O)c2cc(-c3ccc(Cl)cc3)nn2[C@H]2CCC[C@H]21` [Compound I-0009] is 100 to 1000 nM. To `C[C@H]1CN(CC(=O)C2CCCCN2C(=O)O)C(=O)c2cc(-c3ccc(Cl)cc3)nn21` (stereo partly shown) [Compound I-0158] belongs 100 to 1000 nM. Take `CCCCCC1CN(CC(=O)NCCCC(=O)O)C(=O)c2cc(-c3ccc(Cl)cc3)nn21` (stereo not shown) [Compound I-0047]: the IC50 lay in the range of 10 to 100 nM. For the molecule `CC(=O)Nc1cc(Cl)ccc1-c1cc2n(n1)[C@@H](C(F)(F)F)CN(Cc1ccc(C#N)cc1)C2=O` [Compound I-0343], the IC50 is 10 to 100 nM. To `CCOCC1CN(Cc2cccc(C(=O)O)c2)C(=O)c2cc(-c3ccc(Cl)cc3)nn21` (stereo not shown) [Compound I-0175] belongs 10 to 100 nM; to `CCCCCC1CN(Cc2ccc(NC(C)=O)cc2)C(=O)c2cc(-c3ccc(Cl)cc3)nn21` (stereo not shown) [Compound I-0133], at least 1000 nM; to `CCCCC1CN(Cc2ccc(C#N)cc2)C(=O)c2cc(-c3ccc(Cl)cc3NS(C)(=O)=O)nn21` (stereo not shown) [Compound I-0308], at least 1000 nM. To `CCCC(=O)Nc1cc(Cl)ccc1-c1cc2n(n1)[C@@H](C)CN(Cc1ccc(C#N)cc1)C2=O` [Compound I-0321] belongs 10 to 100 nM. Regarding `CCCCCC1CN(c2ccncc2)C(=O)c2cc(-c3ccc(Cl)cc3)nn21` (stereo not shown) [Compound I-0200], the IC50 was at least 1000 nM. Consider `CCCCCC1CN(CC(=O)N[C@@H](C(=O)O)c2ccccc2)C(=O)c2cc(-c3ccc(Cl)cc3)nn21` (stereo partly shown) [Compound I-0064], for which the IC50 was under 10 nM. The figure for `CCCCCC1CN(CC(=O)N2CCCC(CO)C2)C(=O)c2cc(-c3ccc(Cl)cc3)nn21` (stereo not shown) [Compound I-0089] is 10 to 100 nM; for `CCCCCC1CN(CC(=O)N2CCCC2Cc2ccccc2)C(=O)c2cc(-c3ccc(Cl)cc3)nn21` (stereo not shown) [Compound I-0072] it is at least 1000 nM.

Regarding `O=C(O)c1cccc(CN2C(=O)c3cc(-c4ccc(Cl)cc4)nn3[C@H]3CCC[C@H]32)c1` [Compound I-0149], the IC50 lay within 100 to 1000 nM. To `CCCCC1CN(Cc2ccc(C#N)cc2)C(=O)c2cc(-c3ccc(C#N)cc3)nn21` (stereo not shown) [Compound I-0201] belongs 10 to 100 nM; to `CCCCCC1CN(CC(=O)N2CCCC[C@H]2C)C(=O)c2cc(-c3ccc(Cl)cc3)nn21` (stereo partly shown) [Compound I-0076], 100 to 1000 nM. To `CCCCCC1CN(CC(=O)N2CCOCC2)C(=O)c2cc(-c3ccc(Cl)cc3)nn21` (stereo not shown) [Compound I-0101] belongs 100 to 1000 nM; to `CCCCCC1CN(CC(=O)N2CCCCC2CC)C(=O)c2cc(-c3ccc(Cl)cc3)nn21` (stereo not shown) [Compound I-0091], 100 to 1000 nM; to `CCCCCC1CN(CC(=O)NC[C@H]2CC[C@H](C(=O)O)CC2)C(=O)c2cc(-c3ccc(Cl)cc3)nn21` (stereo partly shown) [Compound I-0054], 100 to 1000 nM. Turning to `CCCCCC1CN(Cc2ccc(Oc3ccccc3)cc2)C(=O)c2cc(-c3ccc(Cl)cc3)nn21` (stereo not shown) [Compound I-0146], the IC50 was at least 1000 nM. With `CCCCCC1CN(CC(=O)N2CCC(CO)CC2)C(=O)c2cc(-c3ccc(Cl)cc3)nn21` (stereo not shown) [Compound I-0096], the IC50 was 100 to 1000 nM. To `CCCCCC1CN(Cc2cccc(CC(=O)OCC)c2)C(=O)c2cc(-c3ccc(Cl)cc3)nn21` (stereo not shown) [Compound I-0125] belongs at least 1000 nM; to `CCCCCC1CN(Cc2cccc(C(=O)O)n2)C(=O)c2cc(-c3ccc(Cl)cc3)nn21` (stereo not shown) [Compound I-0184], under 10 nM. The figure for `CCCCC1CN(CC(=O)NCCC(N)=O)C(=O)c2cc(-c3ccc(Cl)cc3)nn21` (stereo not shown) [Compound I-0222] is 100 to 1000 nM.

On to `CCCCC1CN(Cc2ccc(C#N)cc2)C(=O)c2cc(N3CCC(C#N)CC3)nn21` (stereo not shown) [Compound I-0304], for which the IC50 is at least 1000 nM. Take `CCCCC1CN(Cc2ccc(C#N)cc2)C(=O)c2cc(-c3ccc(OC)c(CO)c3)nn21` (stereo not shown) [Compound I-0206]: the IC50 is at least 1000 nM. To `CCCCC1CN(Cc2ccc(C#N)cc2)C(=O)c2cc(N3CC(c4ccccc4)C3)nn21` (stereo not shown) [Compound I-0303] belongs at least 1000 nM; to `CCCCCC1CN(CNC(=O)OC(C)(C)C)C(=O)c2cc(-c3ccc(Cl)cc3)nn21` (stereo not shown) [Compound I-0005], 100 to 1000 nM. To `CCCCC1CN(Cc2nc3ccccc3o2)C(=O)c2cc(-c3ccc(Cl)cc3)nn21` (stereo not shown) [Compound I-0261] belongs 100 to 1000 nM; to `CC(C#N)Nc1cc(Cl)ccc1-c1cc2n(n1)[C@@H](C)CN(Cc1ccc(C#N)cc1)C2=O` (stereo partly shown) [Compound I-0325], at least 1000 nM. As for `CCCCCC1CN(CC(=O)NCCCN(C)C)C(=O)c2cc(-c3ccc(Cl)cc3)nn21` (stereo not shown) [Compound I-0104], the IC50 was at least 1000 nM. The figure for `CCCCCC1CN(Cc2cncc(C(=O)O)c2)C(=O)c2cc(-c3ccc(Cl)cc3)nn21` (stereo not shown) [Compound I-0185] is 10 to 100 nM; for `CCCCC1CN(CC(=O)N2CCOC(C#N)C2)C(=O)c2cc(-c3ccc(Cl)cc3)nn21` (stereo not shown) [Compound I-0239] it is 10 to 100 nM.
